The subject of the assay is CA1 individual neurons. The experiment in a line: Whole-cell LTP (pairing protocol) in CA1 neurons of organotypic slices with APPswe/lnd-EGFP expression. In kind it is cell-based, rat. The following applies: VO-OHpic 26-48 hours. Here is the method: The different versions of APP (APPwt, APPswe/lnd APPMV) and EGFP were co-expressed using an internal ribosomal entry site (IRES) construct. The EGFP-tagged versions of PTEN have been described (Jurado, et al. (2010) EMBO J. 29:2827-2840). All constructs were prepared in pSinRep5 for expression using Sindbis virus. Recombinant proteins were expressed in hippocampal CA1 pyramidal neurons from organotypic slice cultures. Organotypic hippocampal slices were prepared from postnatal day 5-7 rats and cultured during 6-8 days.
The external solution (aCSF) contained 119 mM NaCl, 2.5 mM KCl, 1 mM NaH2PO4, 11 mM glucose, 26 mM NaHCO3, 4 mM MgCl2, 4 mM CaCl2, 100 μM picrotoxin and 2 μM 2-chloroadenosine, pH 7.4, and was gassed with 95% O2 and 5% CO2. Patch recording pipettes (4-7 MO) were filled with internal solution containing 115 mM CsMeSO3, 20 mM CsCl, 10 mM HEPES, 2.5 mM MgCl2, 4 mM Na2-ATP, 0.4 mM Na-GTP, 10 mM sodium phosphocreatine and 0.6 mM EGTA, pH 7.25. Bipolar stimulating electrodes were placed over Schaffer collateral fibers between 250 and 300 μm from the CA1 recorded cells, and synaptic responses were evoked with single voltage pulses (200 μs, up to 30 V). Responses were collected at −60 mV and +40 mV and averaged over 50-100 trials. LTP was induced using a pairing protocol by stimulating Schaffer collateral fibers at 3 Hz for 1.5 minutes while depolarizing the postsynaptic cell at 0 mV. All electrophysiological data were collected with pCLAMP software (Molecular Devices). Immunohistochemistry For the immunostaining protocol, hippocampal slice cultures were fixed with 4% paraformaldehyde for 24 hours washed in PBS and blocked with 5% horse serum for 2 hours. Sections were then incubated for 48 hours at 4° C. with primary antibody. […]
However, this form of depression may in principle be due to Aβ exposure, to intracellular fragments derived from APP processing, or a combination thereof. To test the role of PTEN specifically in the effects of neuron-secreted Aβ, synaptic dysfunctions were monitored in untransfected cells neighboring APPswe/lnd-expressing neurons. […]

Regarding `O=C(O)c1ncccc1O.O=C(O)c1ncccc1O.[O]=[V][O-]` [VO-OHpic], the “LTP potentiation, APPswe/lnd-EGFP infected cells” value (P=0.01) is given as 220%. The “LTP potentiation, uninfected cells exposed to Aβ” value (uninfected neurons adjacent to infected cells, P=0.0006) turned out to be 339%. For the same molecule, the “magnitude of LTP in control slices” value (slices not exposed to APPswe/lnd-EGFP virus) is given as “did not affect the magnitude of LTP”.

Values taken from patent US20170165317A1, “METHOD FOR MITIGATING OR ALLEVIATING SYNAPTIC AND COGNITIVE DEFICITS” (Trustees of Dartmouth College, priority 2013, published 2017).
